Measurements: ChEMBL document CHEMBL5385973, “Progress in small-molecule inhibitors targeting PD-L1” (RSC Med Chem, 2024)

What was measured:
[1] = target: T1, Programmed cell death protein 1/Programmed cell death 1 ligand 1 (Homo sapiens, UniProt Q9NZQ7); assay: Inhibition of PD-1/PD-L1 (unknown origin) interaction; assay type: protein-complex assay
[2] = target: T1, Programmed cell death protein 1/Programmed cell death 1 ligand 1; assay: Inhibition of PD-1/PD-L1 (unknown origin) interaction incubated for 1 hr by HTRF assay; assay type: protein-complex assay
[3] = target: T1, Programmed cell death protein 1/Programmed cell death 1 ligand 1; assay: Inhibition of PD-1/PD-L1 interaction (unknown origin) by AlphaLISA assay relative to control; assay type: protein-complex assay
[4] = target: T1, Programmed cell death protein 1/Programmed cell death 1 ligand 1; assay: Inhibition of PD-1/PD-L1 (unknown origin) protein-protein interaction incubated for 15 mins by TR-FRET assay; assay type: protein-complex assay
[5] = target: T1, Programmed cell death protein 1/Programmed cell death 1 ligand 1; assay: Inhibition of PD-1 (unknown origin)/PD-L1 (unknown origin) interaction by HTRF binding assay; assay type: protein-complex assay
[6] = target: Programmed cell death 1 ligand 1 (Homo sapiens) (UniProt Q9NZQ7); assay: Binding affinity to PD-L1 (unknown origin) assessed as Gibbs free energy change
[7] = target: T1, Programmed cell death protein 1/Programmed cell death 1 ligand 1; assay: Inhibition of PD-1/PD-L1 interaction (unknown origin) by TR-FRET assay; assay type: protein-complex assay
[8] = target: T1, Programmed cell death protein 1/Programmed cell death 1 ligand 1; assay: Inhibition of PD-1/PD-L1 (unknown origin) interaction incubated for 2 hr by TR-FRET assay; assay type: protein-complex assay
[9] = tested on: Jurkat; assay: Induction of T cell activation in human Jurkat T cells overexpressing PD-1 co-cultured with Chinese hamster CHO cells overexpressing PD-L1 assessed as increase in luciferase activity incubated for 6 hrs by Bio-GloTM reagent based immune checkpoint blockade assay; assay type: functional
[10] = target: T1, Programmed cell death protein 1/Programmed cell death 1 ligand 1; assay: Inhibition of human […] interaction incubated for 15 mins by TR-FRET assay; assay type: protein-complex assay
[11] = target: T1, Programmed cell death protein 1/Programmed cell death 1 ligand 1; assay: Inhibition of human PD-1/PD-L1 interaction incubated for 24 hrs by HTRF assay; assay type: protein-complex assay

T1 sequence (Q15116 whole entry): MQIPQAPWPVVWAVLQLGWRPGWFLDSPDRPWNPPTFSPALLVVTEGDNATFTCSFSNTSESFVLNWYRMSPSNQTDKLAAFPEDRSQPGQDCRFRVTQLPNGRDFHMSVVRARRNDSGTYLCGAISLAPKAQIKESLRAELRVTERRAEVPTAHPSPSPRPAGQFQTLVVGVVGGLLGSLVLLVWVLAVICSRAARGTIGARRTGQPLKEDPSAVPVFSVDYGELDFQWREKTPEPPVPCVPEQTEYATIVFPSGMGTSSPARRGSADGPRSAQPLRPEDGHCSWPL
T1 sequence (Q9NZQ7 whole entry): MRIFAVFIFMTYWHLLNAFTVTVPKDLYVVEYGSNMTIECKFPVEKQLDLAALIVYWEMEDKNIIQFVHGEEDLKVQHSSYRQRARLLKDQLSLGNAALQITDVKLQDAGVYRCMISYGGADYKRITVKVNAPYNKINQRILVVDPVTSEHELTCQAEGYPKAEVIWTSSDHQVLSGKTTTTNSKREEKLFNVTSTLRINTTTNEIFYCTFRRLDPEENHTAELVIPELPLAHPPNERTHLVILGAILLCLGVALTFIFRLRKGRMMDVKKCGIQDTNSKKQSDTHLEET
Chain of Programmed cell death 1 ligand 1 (Homo sapiens) (Q9NZQ7 whole entry): as above

`O=C(O)[C@H](CO)NCc1ccc(Nc2nsc3c(-c4ccc5c(c4)OCCO5)cccc23)c(Br)c1` was tested, and the IC50 [1] was 5.7 nM.
With `Cc1c(COc2cc(OCc3ccc(OC(F)(F)F)nc3)c(N3CCCCC3C(=O)O)cc2Cl)cccc1-c1ccccc1` (centres undefined) the IC50 [2] was 56.6 nM.
`Cc1c(COc2cc(OCc3cncc(C#N)c3)c(CN(CCCN(C)C)CCS(=O)(=O)O)cc2Cl)cccc1-c1ccc2c(c1)OCCO2` gave an IC50 [3] of 2.7 nM.
In the case of `Cc1c(COc2cc(OCc3cncc(C#N)c3)c(CNC(C)(C)C(=O)O)cc2Cl)cccc1-c1ccccc1`, the IC50 [3] is reported as 2.7 nM.
For `Cc1cc(/C=C/c2ccc3cc(N(C)C)ccc3[n+]2C)c(C)n1-c1ccccc1`, the IC50 [4] was 29.7 nM.
`O=C(O)[C@H](CO)NCc1cc(Cl)c(OCc2cccc(-c3ccccc3)c2Br)cc1OCc1cccnc1` gave an IC50 [5] of 1.1 nM.
`CC(C)OC(=O)[C@H](CO)NCc1cc(Cl)c(OCc2cccc(-c3ccccc3)c2Br)cc1OCc1cccnc1` was tested, and the IC50 [5] was 45.2 nM.
For `Fc1cccc(-c2nccc(N[C@@H]3CO[C@@H]4[C@H]3OC[C@H]4NCc3ccccn3)n2)c1`, the deltaG [6] was -32 kcal/mol.
With `Cc1c(COc2cc(OCc3cccc(C#N)c3)c(CNC(CO)(CO)CO)cc2Cl)cccc1-c1cccc(-c2cc(C(=O)N3CC[C@@H](O)C3)no2)c1` the IC50 [7] was 23 nM.
`Cn1nc(Nc2cccc(-c3ccc4c(c3)OCCO4)c2Cl)c2ccc(CN[C@H](CO)C(=O)O)cc21` gave an IC50 [8] of 9.6 nM and an EC50 [9] of 1610 nM.
`CS(=O)(=O)c1cncc(CCc2nc(OCc3cccc(-c4cccc(-c5ccc6c(c5)C[C@H](N)C6)c4Cl)c3Cl)c(Br)cc2CN2CCCC[C@@H]2C(=O)O)c1` was tested, and the IC50 [10] was 0.09 nM.
Compound `Cc1c(/C=C/c2ccc(CNC(C)(CO)C(=O)O)cc2C(F)(F)F)cccc1-c1ccc2c(c1)OCCO2` (centres undefined) has an IC50 [11] of 18 nM.
`Cc1c(COc2cc(OCc3cccc(C#N)c3)c(CN3C[C@H](O)C[C@@H]3C(=O)O)cc2Cl)cccc1-c1ccc2c(c1)OCCO2` showed a deltaG [6] of -34 kcal/mol.
